Results as given in US11400389B2, “Marsdenia cundurango creeper extracts, cosmetic compositions comprising them and cosmetic uses of same” (ISP Investments LLC, priority 2017, dated 2022).
No end group written: not given here.

Key:
interleukin-6 (IL-6) = assay: Salting-out of interleukin-6 by skin biopsies subjected to stress by substance P (ELISA); type: cell-based, human; conditions: substance P 10^−6 M in culture medium, 48 hours, extract 1% in a cream where applied
Source text: The objective of this experiment was to study the effect of the condurango extract on skin biopsies subjected to a stress by the substance P. The substance P was the central mediator of neurogenic inflammation (inflammation mediated via the peripheral nervous system). The neuropeptide is involved in various processes, including acute or chronic inflammation, and the perception of pain or nociception. The effect of the stress, whether or not brought about in the presence of the condurango extract, was studied by measuring the salting-out of interleukin-6 (IL-6), a cytokine synthesised by skin cells and considered to be a nociceptive inflammation mediator (O'Donovan A et al. Clinical anxiety, cortisol and interleukin-6: evidence for specificity in emotion-biology relationships. Brain Behav Immun. 2010 October; 24(7):1074-7).
Skin biopsies in culture were treated with the condurango extract obtained from example 4, formulated to 1% in a cream, as in example 5, with or without addition of substance P at 10^−6 M in the culture medium.
After 48 hours of incubation, the culture medium of the biopsies was collected and the level of IL-6 was measured by ELISA.

LAMP2 = assay: Expression of the LAMP2 autophagy marker in skin biopsies with or without multi-toxin (cigarette smoke) stress; type: cell-based; conditions: human skin biopsies, extract 1% in a cream, EGCG 200 μg/ml
Procedure: The objective of this study was to observe the effect of treatment by condurango on skin biopsies previously subjected to multi-toxin stress, brought about by incubating the biopsies with cigarette smoke.
The selected marker is the lysosomal membrane protein LAMP2A, which is involved in the process of autophagy, one of the main pathways of degradation of cellular waste.
Human skin biopsies in culture were placed in a sealed chamber saturated with cigarette smoke for 30 minutes. This stress was referred to as multi-toxic stress due to the cigarette smoke being composed of toxic molecules from different classes. After the stress, the biopsies were placed in culture and treated by the condurango extract obtained from example 4 and formulated to 1% (mass/mass) in a cream, as in example 5. […]
At the end of this incubation, the protein LAMP2 was detected by immunomarking on skin biopsy sections.
This technique was performed on paraffin skin sections incubated in the presence of the anti-LAMP2 antibody (rabbit polyclonal antibody, Abcam) After 1 hour of incubation followed by rinsings, the sections were incubated in the presence of secondary anti-rabbit antibody coupled with a fluorophore (Alexa Fluor® 488, Invitrogen). The sections were then examined under epi-fluorescence microscope (Zeiss Axiovert 200M microscope). The expression of LAMP2 was then observed and quantified at epidermis level.

Compound	level of IL-6 compared to the non-stressed control (interleukin-6 (IL-6))	increase of LAMP2 after multi-toxic stress (LAMP2; cigarette smoke 30 minutes then treatment)	rise in the marking intensity of LAMP2, in the absence of stress (LAMP2; no stress, 48 hours)
substance P: neuropeptide, central mediator of neurogenic inflammation, used as stressor (RPKPQQFFGLM; ends and bridges not checked; UniProt P20366 58-68, looked up)	+68%		
O=C(O[C@@H]1Cc2c(O)cc(O)cc2O[C@@H]1c1cc(O)c(O)c(O)c1)c1cc(O)c(O)c(O)c1 [EGCG, epigallocatechin gallate]		+26%	+27%
